Results published in ChEMBL document CHEMBL4373709 (J Med Chem, 2019).
The source made the active and inactive calls. The calls are words filed in the database; no cut-off is given here.

Experiments:
[1] = molecular target: T1, Neurotensin receptor type 1 (Homo sapiens, UniProt P30989); test: Allosteric modulation of human GFP-fused PK-tagged Gq-coupled NTR1 expressed in CHOK1 cells assessed as induction of NT (8 to 13) peptide-mediated beta-arrestin recruitment measured after 90 mins by pathhunter assay; type: cell-based
T1 sequence (P30989 whole entry, the tested form may be a part): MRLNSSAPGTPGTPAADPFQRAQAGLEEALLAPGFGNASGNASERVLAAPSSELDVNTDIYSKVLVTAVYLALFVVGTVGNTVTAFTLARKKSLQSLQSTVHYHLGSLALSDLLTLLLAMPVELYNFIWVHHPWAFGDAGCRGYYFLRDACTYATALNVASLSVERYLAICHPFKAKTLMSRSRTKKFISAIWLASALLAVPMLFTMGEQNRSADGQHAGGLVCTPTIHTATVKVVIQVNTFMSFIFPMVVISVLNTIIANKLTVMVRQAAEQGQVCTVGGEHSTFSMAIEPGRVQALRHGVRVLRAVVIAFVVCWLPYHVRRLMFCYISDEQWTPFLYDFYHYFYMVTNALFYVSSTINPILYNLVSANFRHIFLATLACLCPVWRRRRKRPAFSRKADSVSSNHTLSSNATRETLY

[2] = molecular target: Neurotensin receptor type 2 (Homo sapiens) (UniProt O95665); test: Allosteric modulation of NTR2 (unknown origin) assessed as induction of NT (8 to 13) peptide-mediated beta-arrestin recruitment at >80 uM by pathhunter assay
Neurotensin receptor type 2 (Homo sapiens), sequence (O95665 whole entry, the tested form may be a part): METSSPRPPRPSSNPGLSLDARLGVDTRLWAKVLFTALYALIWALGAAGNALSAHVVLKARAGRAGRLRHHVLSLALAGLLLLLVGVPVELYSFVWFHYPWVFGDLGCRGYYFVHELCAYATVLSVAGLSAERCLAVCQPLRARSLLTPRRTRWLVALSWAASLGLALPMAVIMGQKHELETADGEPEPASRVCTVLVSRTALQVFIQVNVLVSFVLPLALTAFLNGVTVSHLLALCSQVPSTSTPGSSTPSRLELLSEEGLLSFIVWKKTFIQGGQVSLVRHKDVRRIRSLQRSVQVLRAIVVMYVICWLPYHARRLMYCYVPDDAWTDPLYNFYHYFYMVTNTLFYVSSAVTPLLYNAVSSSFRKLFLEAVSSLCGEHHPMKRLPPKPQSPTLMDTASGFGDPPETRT

[3] = molecular target: T1, Neurotensin receptor type 1; test: Allosteric modulation of human GFP-fused PK-tagged Gq-coupled NTR1 expressed in CHOK1 cells assessed as induction of NT (8 to 13) peptide-mediated beta-arrestin recruitment measured after 90 mins by pathhunter assay relative to NT (8 to 13) peptide; type: cell-based
[4] = molecular target: D(1A) dopamine receptor (Homo sapiens) (UniProt P21728); test: Binding affinity to D1R (unknown origin) at 5 uM relative to control
D(1A) dopamine receptor (Homo sapiens), sequence (P21728 whole entry): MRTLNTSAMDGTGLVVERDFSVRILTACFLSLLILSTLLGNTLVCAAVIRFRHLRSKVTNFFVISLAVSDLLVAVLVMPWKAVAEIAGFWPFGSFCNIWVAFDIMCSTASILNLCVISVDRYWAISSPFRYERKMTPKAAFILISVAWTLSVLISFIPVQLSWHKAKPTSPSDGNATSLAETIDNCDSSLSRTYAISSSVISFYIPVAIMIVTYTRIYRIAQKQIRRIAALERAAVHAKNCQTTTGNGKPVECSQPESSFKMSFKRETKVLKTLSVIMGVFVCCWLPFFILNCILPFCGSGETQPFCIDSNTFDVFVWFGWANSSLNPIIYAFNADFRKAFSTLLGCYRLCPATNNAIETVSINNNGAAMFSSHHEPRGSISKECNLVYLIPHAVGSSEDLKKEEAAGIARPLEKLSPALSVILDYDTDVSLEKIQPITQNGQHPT

[5] = system: Mus musculus; test: Suppression of hyperlocomotion in DAT knockout C57BL/6J mouse assessed as reduction in total distance traveled at 10 to 100 mg/kg, po measured up to 2 hrs by open field test; type: functional, organism-based
[6] = molecular target: G-protein coupled receptor 35 (Homo sapiens) (UniProt Q9HC97); test: Allosteric modulation of human PK-tagged Gi/Go-coupled GPR35 expressed in CHOK1 cells assessed as induction of zaprinast-mediated beta-arrestin recruitment by pathhunter assay; type: cell-based
G-protein coupled receptor 35 (Homo sapiens), sequence (Q9HC97 whole entry): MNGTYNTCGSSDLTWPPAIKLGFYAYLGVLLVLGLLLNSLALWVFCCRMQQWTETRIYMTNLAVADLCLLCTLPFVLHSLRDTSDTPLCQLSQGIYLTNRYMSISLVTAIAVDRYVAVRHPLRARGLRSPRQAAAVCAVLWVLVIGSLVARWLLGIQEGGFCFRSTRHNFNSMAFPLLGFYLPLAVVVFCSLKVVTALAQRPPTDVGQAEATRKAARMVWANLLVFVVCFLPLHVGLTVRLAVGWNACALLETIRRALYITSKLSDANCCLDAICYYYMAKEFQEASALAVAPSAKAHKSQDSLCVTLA

[7] = molecular target: G-protein coupled receptor 55 (Homo sapiens) (UniProt Q9Y2T6); test: Allosteric modulation of human PK-tagged Gq-coupled GPR55 expressed in CHOK1 cells assessed as induction of L-alpha-Lysophosphatidylinositol-mediated beta-arrestin recruitment by pathhunter assay; type: functional, cell-based
G-protein coupled receptor 55 (Homo sapiens), sequence (Q9Y2T6 whole entry): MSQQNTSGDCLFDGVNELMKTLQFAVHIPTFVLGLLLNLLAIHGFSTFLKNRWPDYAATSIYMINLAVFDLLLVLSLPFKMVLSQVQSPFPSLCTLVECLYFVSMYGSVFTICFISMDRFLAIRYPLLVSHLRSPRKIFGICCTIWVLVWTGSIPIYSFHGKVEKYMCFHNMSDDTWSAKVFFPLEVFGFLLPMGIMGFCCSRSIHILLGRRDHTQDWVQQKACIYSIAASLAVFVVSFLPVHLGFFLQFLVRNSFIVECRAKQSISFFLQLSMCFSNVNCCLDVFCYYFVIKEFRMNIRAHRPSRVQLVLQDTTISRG

[8] = molecular target: Histamine H1 receptor (Homo sapiens) (UniProt P35367); test: Binding affinity to H1R (unknown origin) at 5 uM relative to control
Histamine H1 receptor (Homo sapiens), sequence (P35367 whole entry): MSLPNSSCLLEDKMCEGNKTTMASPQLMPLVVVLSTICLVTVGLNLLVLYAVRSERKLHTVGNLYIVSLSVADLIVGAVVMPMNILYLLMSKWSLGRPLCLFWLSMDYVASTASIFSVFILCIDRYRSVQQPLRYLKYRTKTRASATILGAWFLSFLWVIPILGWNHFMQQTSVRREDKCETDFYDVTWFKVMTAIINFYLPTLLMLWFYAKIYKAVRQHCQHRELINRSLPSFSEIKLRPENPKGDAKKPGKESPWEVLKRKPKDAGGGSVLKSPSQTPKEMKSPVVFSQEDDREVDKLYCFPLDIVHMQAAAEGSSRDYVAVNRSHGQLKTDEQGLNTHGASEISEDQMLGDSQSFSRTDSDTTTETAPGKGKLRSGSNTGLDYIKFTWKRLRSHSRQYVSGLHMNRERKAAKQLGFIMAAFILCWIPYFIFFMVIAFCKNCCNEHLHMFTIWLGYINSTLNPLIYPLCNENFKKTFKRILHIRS

[9] = molecular target: T2, Alpha-2A adrenergic receptor (Homo sapiens) (UniProt P08913); test: Binding affinity to alpha2A adrenoceptor (unknown origin) at 5 uM relative to control
T2 sequence (whole entry): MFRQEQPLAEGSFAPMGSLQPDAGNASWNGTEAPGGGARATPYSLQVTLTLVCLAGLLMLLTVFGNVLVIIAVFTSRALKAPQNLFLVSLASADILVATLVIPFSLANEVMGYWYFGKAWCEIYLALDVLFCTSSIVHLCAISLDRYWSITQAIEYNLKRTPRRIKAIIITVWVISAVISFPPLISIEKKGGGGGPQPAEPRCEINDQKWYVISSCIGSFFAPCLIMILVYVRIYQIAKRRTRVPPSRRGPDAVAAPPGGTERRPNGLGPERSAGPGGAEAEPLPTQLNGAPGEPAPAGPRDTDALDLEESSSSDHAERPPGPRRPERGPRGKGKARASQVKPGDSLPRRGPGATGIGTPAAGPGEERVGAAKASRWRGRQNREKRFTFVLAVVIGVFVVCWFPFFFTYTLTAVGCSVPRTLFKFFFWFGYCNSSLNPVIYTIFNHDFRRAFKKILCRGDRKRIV

[10] = molecular target: T1, Neurotensin receptor type 1; test: Allosteric modulation of human GFP-fused PK-tagged Gq-coupled NTR1 expressed in CHOK1 cells assessed as induction of NT (8 to 13) peptide-mediated beta-arrestin recruitment at 0.5 to 356 nM measured after 90 mins by pathhunter assay; type: cell-based
[11] = molecular target: 5-hydroxytryptamine receptor 2B (Homo sapiens) (UniProt P41595); test: Binding affinity to 5HT2B (unknown origin) at 5 uM relative to control
5-hydroxytryptamine receptor 2B (Homo sapiens), sequence (P41595 whole entry): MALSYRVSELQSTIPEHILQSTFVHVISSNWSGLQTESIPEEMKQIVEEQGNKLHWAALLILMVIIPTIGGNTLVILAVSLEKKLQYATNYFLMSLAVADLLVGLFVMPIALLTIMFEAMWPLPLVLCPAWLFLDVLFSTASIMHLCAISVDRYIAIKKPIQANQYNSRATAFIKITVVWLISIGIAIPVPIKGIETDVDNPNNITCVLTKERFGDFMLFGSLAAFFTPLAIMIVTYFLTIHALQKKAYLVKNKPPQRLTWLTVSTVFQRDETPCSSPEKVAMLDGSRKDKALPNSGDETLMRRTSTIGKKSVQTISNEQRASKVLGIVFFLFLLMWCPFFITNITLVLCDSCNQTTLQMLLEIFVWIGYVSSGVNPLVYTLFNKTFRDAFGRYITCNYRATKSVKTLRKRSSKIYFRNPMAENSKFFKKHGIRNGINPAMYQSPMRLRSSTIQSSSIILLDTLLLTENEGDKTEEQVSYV

[12] = molecular target: Neurotensin receptor type 2 (Homo sapiens) (UniProt O95665); test: Positive allosteric modulation of recombinant human NTR2 expressed in HEK293 cells assessed as increase in [125I]-neurotensin binding measured after 3 hrs; type: cell-based
[13] = molecular target: T1, Neurotensin receptor type 1; test: Agonist activity at NTR1 (unknown origin) expressed in CHO cells assessed as effect on calcium flux by Fluo-4 NW calcium dye based fluorescence assay; type: functional, cell-based
[14] = molecular target: Kappa-type opioid receptor (Homo sapiens) (UniProt P41145); test: Allosteric modulation of human PK-tagged Gi/Go-coupled KOR expressed in CHOK1 cells assessed as induction of dynorphin A-mediated beta-arrestin recruitment by pathhunter assay; type: cell-based
Kappa-type opioid receptor (Homo sapiens), sequence (P41145 whole entry): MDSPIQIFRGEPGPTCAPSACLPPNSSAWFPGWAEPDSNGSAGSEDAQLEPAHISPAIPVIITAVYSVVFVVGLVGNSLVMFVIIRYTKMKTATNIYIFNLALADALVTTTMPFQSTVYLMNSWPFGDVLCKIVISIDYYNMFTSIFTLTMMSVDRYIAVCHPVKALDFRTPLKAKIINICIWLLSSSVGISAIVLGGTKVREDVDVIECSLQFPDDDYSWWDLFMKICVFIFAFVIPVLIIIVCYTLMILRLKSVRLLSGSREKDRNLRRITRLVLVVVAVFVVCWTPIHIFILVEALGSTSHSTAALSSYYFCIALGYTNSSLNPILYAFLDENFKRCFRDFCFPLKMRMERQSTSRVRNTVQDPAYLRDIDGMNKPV

[15] = molecular target: T1, Neurotensin receptor type 1; test: Positive allosteric modulation of recombinant human NTR1 expressed in HEK293 cells assessed as increase in [125I]-neurotensin binding measured after 45 mins relative to control; type: cell-based
[16] = system: Mus musculus; test: Suppression of hyperlocomotion in DAT knockout C57BL/6J mouse assessed as reduction in total distance traveled at 12 mg/kg, ip measured up to 2 hrs by open field test; type: functional, organism-based
[17] = molecular target: Neurotensin receptor type 1 (Mus musculus) (UniProt O88319); test: Positive allosteric modulation of NTR1 in ICR mouse brain assessed as increase in [125I]-neurotensin binding measured after 20 mins; type: tissue-based
Neurotensin receptor type 1 (Mus musculus), sequence (O88319 whole entry): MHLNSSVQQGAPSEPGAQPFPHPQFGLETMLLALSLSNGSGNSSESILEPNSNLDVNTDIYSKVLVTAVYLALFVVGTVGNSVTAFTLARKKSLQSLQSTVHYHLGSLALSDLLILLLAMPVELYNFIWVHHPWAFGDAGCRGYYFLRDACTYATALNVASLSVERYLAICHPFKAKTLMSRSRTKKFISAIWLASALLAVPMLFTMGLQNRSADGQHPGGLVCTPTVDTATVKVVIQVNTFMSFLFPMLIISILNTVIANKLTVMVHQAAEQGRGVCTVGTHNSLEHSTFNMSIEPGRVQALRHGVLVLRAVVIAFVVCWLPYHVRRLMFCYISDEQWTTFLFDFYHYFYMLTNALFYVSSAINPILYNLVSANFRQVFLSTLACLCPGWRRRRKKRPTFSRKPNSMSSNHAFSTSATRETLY

SMILES | EC50 [1] | Activity [2] | Emax [3] | further results
COc1ccccc1C1CCN(c2nc(C3CC3)nc3cc(C)c(N(C)CCO)cc23)CC1 | 0.56 µM | inactive | 88% | 
CCN(C)c1ccc2nc(C3CC3)nc(N3CCC(c4ccccc4OC)CC3)c2c1 | 0.56 µM | inactive | 80% | 
COc1ccccc1C1CCN(c2nc(C3(F)CC3)nc3ccc(N(C)C)cc23)CC1 | 0.92 µM | inactive | 84% | 
CCN(C)c1cccc2nc(C3CC3)nc(N3CCC(c4ccccc4OC)CC3)c12 | 6.71 µM | inactive | 60% | 
CCCN(C)c1ccc2nc(C3(F)CC3)nc(N3CCC(c4ccccc4OC)CC3)c2c1 | 1.45 µM | inactive | 80% | 
COc1cc2nc(C3CC3)nc(N3CCC(c4ccccc4OC)CC3)c2cc1OC | 1.04 µM | inactive | 89% | 
COc1ccccc1C1CCN(c2nc(C3(F)CC3)nc3ccc(N(C)CCO)cc23)CC1 |  | inactive | 100% | Activity [4]: 36%; Activity [5]: Active; Activity [6]: inactive; Activity [7]: inactive; Activity [8]: 75%; Activity [9]: 55%; Activity [10]: inactive; Activity [11]: 42%; Activity [12]: inactive; Activity [13]: inactive; Activity [14]: inactive; Emax [15]: 140%; Activity [16]: Active; Activity [17]: Active
COc1ccccc1C1CCN(c2nc(C3CC3)nc3c(Cl)cc(N(C)CCO)cc23)CC1 | 0.22 µM | inactive | 95% | 
COc1ccccc1C1CCN(c2nc(C3CC3)nc3ccc(N4CC[C@@H](OC)C4)cc23)CC1 | 0.64 µM | inactive | 93% | 
COc1ccccc1C1CCN(c2nc(C3CC3)nc3ccc(N4CC[C@H](OC)C4)cc23)CC1 | 0.81 µM | inactive | 82% | 
COCCN(C)c1ccc2nc(C3(C)CC3)nc(N3CCC(c4ccccc4OC)CC3)c2c1 | 2.23 µM | inactive | 60% | 
CCCN(C)c1ccc2c(N3CCC(c4ccccc4OC)CC3)nc(C3CC3)nc2c1 | 10 µM | inactive | 86% | 
COc1ccccc1C1CCN(c2nc(C3CC3)nc3ccc(N(C)CCO)c(F)c23)CC1 | 0.59 µM | inactive | 95% | 
COc1ccccc1C1CCN(c2nc(C3(C)CCC3)nc3ccc(N(C)CCO)cc23)CC1 | 1.48 µM | inactive | 75% | 
COc1ccccc1C1CCN(c2nc(-c3ccccc3)nc3ccc(N(C)CCO)cc23)CC1 | 4.23 µM | inactive | 70% | 
COCCN(C)c1ccc2nc(C3(F)CC3)nc(N3CCC(c4ccccc4OC)CC3)c2c1 | 1.06 µM | inactive | 86% | 
COc1ccccc1C1CCN(c2nc(C3CCC3)nc3ccc(N(C)CCO)cc23)CC1 | 1.05 µM | inactive | 80% | 
COc1ccccc1C1CCN(c2nc(C3CC3)nc3ccc(N4CC[C@@H](O)C4)cc23)CC1 | 0.44 µM | inactive | 79% | 
COc1ccccc1C1CCN(c2nc(C3CC3)nc3ccc(N(C)CCO)cc23)CC1 | 0.478 µM | inactive | 92% | 
COc1ccccc1C1CCN(c2nc(C3(C)CC3)nc3ccc(N(C)CCO)cc23)CC1 |  | inactive | 90% | 
COc1ccccc1C1CCN(c2nc(C3(F)CC3)nc3ccc(N(C)CCN4CCOCC4)cc23)CC1 | 1.72 µM | inactive | 97% | 
COc1ccccc1C1CCN(c2nc(C3CC3)nc3ccc(N(C)C)cc23)CC1 | 0.888 µM | inactive | 89% | 

SMILES | EC50 [1] | Activity [2] | Emax [3] | further results
COc1ccccc1C1CCN(c2nc(C3(F)CCC3)nc3ccc(N(C)CCO)cc23)CC1 | 0.27 µM | inactive | 96% | 
COc1ccccc1C1CCN(c2nc(C3CC3)nc3c(F)cc(N(C)CCO)cc23)CC1 | 0.16 µM | inactive | 100% | 
COc1ccccc1C1CCN(c2nc(C3CCCC3)nc3ccc(N(C)CCO)cc23)CC1 | 3.88 µM | inactive | 78% | 
COc1ccccc1C1CCN(c2nc(C3CC3)nc3ccc(N(C)CCN4CCOCC4)cc23)CC1 | 0.81 µM | inactive | 92% | 
COc1ccccc1C1CCN(c2nc(C3CC3)nc3c(C)cc(N(C)CCO)cc23)CC1 | 0.16 µM | inactive | 87% | 
COc1ccccc1C1CCN(c2nc(C3CC3)nc3ccc(N4CCC(OC)CC4)cc23)CC1 | 2.78 µM | inactive | 79% | 
COc1ccccc1C1CCN(c2nc(C3CC3)nc3ccc(N(C)CCO)c(Cl)c23)CC1 | 0.5 µM | inactive | 91% | 
COc1ccccc1C1CCN(c2nc(C3CC3)nc3ccc(N4CCC(O)CC4)cc23)CC1 | 6.72 µM | inactive | 82% | 
COc1ccccc1C1CCN(c2nc(C3CC3)nc3cc(Cl)c(N(C)CCO)cc23)CC1 | 0.6 µM | inactive | 98% | 
COc1ccccc1C1CCN(c2nc(C3(C(F)(F)F)CC3)nc3ccc(N(C)CCN4CCOCC4)cc23)CC1 | 3.81 µM | inactive | 78% | 
CCCN(C)c1cc2c(N3CCC(c4ccccc4OC)CC3)nc(C3CC3)nc2cc1C | 0.99 µM | inactive | 86% | 
COc1ccccc1C1CCN(c2nc(C3CC3)nc3ccc(N(C)CCO)c(C)c23)CC1 | 1.26 µM | inactive | 93% | 
CCCN(C)c1cc2c(N3CCC(c4ccccc4OC)CC3)nc(C3CC3)nc2cc1F | 3.01 µM | inactive | 68% | 
COc1cc2nc(C3CC3)nc(N3CCN(c4ccccc4OC)CC3)c2cc1OC | 2.87 µM | inactive |  | Activity [6]: inactive; Activity [7]: inactive; Activity [13]: inactive; Activity [14]: inactive
COc1ccccc1C1CCN(c2nc(C3CC3)nc3ccc(N4CC[C@H](O)C4)cc23)CC1 | 1.01 µM | inactive | 78% | 
COc1ccccc1C1CCN(c2nc(C3(C)CC3)nc3ccc(N(C)CCN4CCOCC4)cc23)CC1 | 3.36 µM | inactive | 71% | 
COc1ccccc1N1CCN(c2nc(C3CC3)nc3ccc(N(C)C)cc23)CC1 | 0.71 µM |  |  | 
COCCN(C)c1ccc2nc(C3CC3)nc(N3CCC(c4ccccc4OC)CC3)c2c1 | 1.12 µM | inactive | 79% | 
COc1ccccc1C1CCN(c2nc(C3(C(F)(F)F)CC3)nc3ccc(N(C)CCO)cc23)CC1 | 0.34 µM | inactive | 94% | 
CCCN(C)c1ccc2nc(C3CC3)nc(N3CCC(c4ccccc4OC)CC3)c2c1 | 0.732 µM | inactive | 68% | 
COc1cc2nc(C3CC3)nc(C3CCN(c4ccccc4OC)CC3)c2cc1OC | > 20 µM | inactive |  | 
